{"source": "patent US11357745B2", "about": "“Methods and materials for treating cytokine release syndrome” (Mayo Foundation for Medical Education and Research, priority 2018, dated 2022)", "key": {"[1]": {"test_system": "human myeloma cell lines (HMCLs)", "test": "MTT assay across 10 human myeloma cell lines, compared with receptor surface expression by flow cytometry", "format": "cell-based", "excerpt": "Surface expression of IL-6Rα, IL-6ST and CD44 was quantified using IL-6Rα-PE (clone UV4, Biolegend), IL-6ST-APC (2E1B02, Biolegend) and CD44-BV711 (IM7, Biolegend), and compared to isotype or unstained control."}, "[2]": {"test_system": "IL-6Rα", "test": "Flow cytometry, cell surface IL-6Rα on primary myeloma cells", "format": "cell-based, human", "settings": "metformin 10 mM, 48 hours, n=11", "experimental": "(§1) Surface expression of IL-6Rα, IL-6ST and CD44 was quantified using IL-6Rα-PE (clone UV4, Biolegend), IL-6ST-APC (2E1B02, Biolegend) and CD44-BV711 (IM7, Biolegend), and compared to isotype or unstained control. BrdU labelling assay (Phase-Flow™, Biolegend) was performed according to the manufacturer's protocol to quantify cell cycle fractions. After treatment cells were labelled with BrdU for 2 hours. For apoptosis assay, cells were treated with metformin for 72 hours and quantified with Annexin V (Biolegend). All assays were quantified on LSR Fortessa."}, "[3]": {"test_system": "JJN3 engineered to over-express IL-6Rα", "test": "MTT assay in JJN3 cells over-expressing IL-6Rα", "format": "cell-based, human", "settings": "n=6", "method": "Ten different HMCLs were treated with metformin (0, 1 mM, 5 mM, 10 mM, 20 mM, 40 mM, and 80 mM) for 72 hours. The total numbers of live cells (metabolically active) were estimated using MTT assay. Relative proliferation was calculated by normalizing absorbance value with that obtained for vehicle control. IC50 was calculated using Compusyn software. […] (D) JJN3 IL-6Rα over-expressing cells were created using IL-6R cDNA expressing vector. Increased expression of IL-6Rα was confirmed by flow cytometry. (E) The sensitivity to metformin (IC50) was calculated using the MTT assay for cells transduced with the shRNA scrambled control or IL-6Rα KDs (n=6). […] (F) Metformin IC50 was calculated using MTT assay for JJN3 control and IL-6Rα over-expresser (n=6).\n(3-(4,5-Dimethylthiazol-2-5-Diphenyltetrazolium Bromide (MTT) (ThermoFisher Scientific, MA, USA) was dissolved in PBS to make 12 mM stock solution. Cells were seeded at 10,000 cells in 50 μL complete medium. Drugs, cytokines and antibodies were added at indicated doses in 50 μL complete medium. HMCLs were incubated for 72 hours while primary myeloma cells were incubated for 48 hours in presence of vehicle control, metformin (1 mM, 5 mM, 10 mM, 20 mM, 40 mM and 80 mM). MTT (10 μL) was added to each well and incubated for an additional 2 hours. Lysis buffer (100 μL) was added to each well and absorbance was read at 570 nm. […]"}, "[4]": {"test_system": "soluble IL-6Rα", "settings": "RPMI and ANBL6, metformin 10 mM, 72 hours, ELISA", "experimental": "(§2) RPMI, ANBL6, U266, MM1S, and JJN3 were treated with metformin 10 mM for 72 hours and median fluorescence intensity for cell surface expression of (A) IL-6Rα, (B) IL-6-Rβ and (C) CD44 was quantified using flow cytometry. Vehicle (open bar) and metformin 10 mM (shaded bar), n=3. (D) RPMI and ANBL6 cells were cultured either in the presence of vehicle control or metformin 10 mM for 72 hours. Soluble IL-6Rα was quantified in media supernatant using ELISA kit. Vehicle (open bar) and metformin 10 mM (shaded bar), n=6. […] (E) RPMI and ANBL6 cells were cultured either in presence of vehicle control or metformin 10 mM for 72 hours. mRNA expression of IL-6Rα was quantified using qPCR TaqMan assay. Vehicle (open bar) and metformin 10 mM (shaded bar), n=6."}, "[5]": {"test_system": "CD44", "test": "Flow cytometry, cell surface CD44 in HMCLs", "format": "cell-based, human", "settings": "RPMI, ANBL6, U266, MM1S, JJN3; metformin 10 mM, 72 hours", "experimental": "as §2, §1"}, "[6]": {"test_system": "KMS12PE", "test": "MTT assay, metformin in KMS12PE myeloma cells", "format": "cell-based", "settings": "Homo sapiens, KMS-12-PE, 72 hours, Compusyn, read-out: metformin required to achieve 50% cell death/growth inhibition (IC50)", "experimental": "(§3) Data is presented as heat map intensity corresponding to the level of expression. (B) HMCLs were treated with different doses of metformin for 72 hours and relative proliferation compared to vehicle control was calculated using MTT assay. Data is presented as IC50 for different cell lines and IC50 was calculated using Compusyn software (n=6). (C) & (D) HMCLs MM1S, RPMI, and U266 were treated with vehicle control (DMSO) or metformin 10 mM for 72 hours. (C) For apoptosis assay, cells were suspended in Annexin V buffer and stained with Annexin V for 30 minutes. Propidium iodide was added 10 minutes prior to data acquisition by flow cytometry. (D) For cell cycle assay, BrdU was added and incubated for 4 hours. Cells were fixed, permeabilized and stained with Anti-BrdU antibody for 30 minutes. 7AAD was added 10 minutes to samples before data acquisition by flow cytometry. The data were acquired on BD Fortessa and analyzed with flowjo V10.\n(§4) IC50 was calculated using Compusyn software."}, "[7]": {"test_system": "IL-6Rα", "test": "Flow cytometry, IL-6Rα on Hep3B hepatocytes", "format": "cell-based, human", "settings": "metformin 10 mM, 72 hours", "experimental": "Human hepatocellular carcinoma cell line Hep3B was purchased from ATCC. Cells were maintained in DMEM supplemented with 10% FBS and 100 U/mL penicillin and 100 μg/mL streptomycin.\nas §1, with “Fortessa. Data were analyzed using flowJo vs10.4.2 (Flowjo LLC, USA).” for “Fortessa.”"}, "[8]": {"test_system": "RPMI IL-6Rα knock-downs", "test": "MTT assay in RPMI IL-6Rα knock-down cells", "format": "cell-based, human", "settings": "n=6", "experimental": "as §4\npGFP-C-shLenti vectors (4 shRNA targeting IL-6Rα and 1 scramble control) were purchased from Origene. Lentiviral particles were generated in HEK293T cells using pMD2.G (Addgene) and psPAX2 (Addgene). HMCLs were transduced with lentiviral vector particles in the presence of Polybrene (Millipore). Stable cell lines were generated after selecting for GFP positive cells with flow sorting and treatment with puromycin. Decreased expression of IL-6Rα compared to scrambled control was confirmed with qPCR and flow cytometer."}, "[9]": {"test_system": "JJN3", "test": "MTT assay, metformin in JJN3 myeloma cells", "format": "cell-based", "settings": "Homo sapiens, JJN-3, JJN3, 72 hours, Compusyn, read-out: metformin required for 50% cell death/growth inhibition (IC50)", "experimental": "as §3, §4"}, "[10]": {"test_system": "RPMI", "test": "BrdU cell cycle assay, RPMI", "format": "cell-based, human", "settings": "metformin 10 mM, 72 hours, from 53% without metformin", "experimental": "as §3, with “Cells were fixed, permeabilized and stained with Anti-BrdU antibody for 30 minutes. 7AAD was added 10 minutes to samples before data acquisition by flow cytometry.” left out\n(§5) Cell surface expression of IL-6Rα, IL-6ST, and CD44 was quantified using the fluorescently labeled antibodies anti-IL6R-PE (UV4, Biolegend), anti-IL6ST-APC (2E1B02, Biolegend) and anti-CD44-BV711 (IM7, Biolegend), and compared with isotype control. BrdU labeling assay (Phase-Flow™, Biolegend) was performed according to the manufacturer's protocol to quantify cell cycle. […] For apoptosis assay, the cells were treated with metformin for 72 hours and quantified with Annexin V (Biolegend). […] The data were analyzed using flowJo vs10.4.2 (Flowjo LLC, USA). […]"}, "[11]": {"test_system": "IL-6Rα mRNA", "test": "IL-6Rα mRNA, qPCR TaqMan assay", "format": "cell-based, human", "settings": "RPMI and ANBL6, metformin 10 mM, 72 hours", "experimental": "as §2"}, "[12]": {"test_system": "RPMI", "test": "Annexin V / propidium iodide apoptosis assay, RPMI", "format": "cell-based, human", "settings": "metformin 10 mM, 72 hours, Annexin V/PI", "experimental": "as §3, with “Cells were fixed, permeabilized and stained with Anti-BrdU antibody for 30 minutes. 7AAD was added 10 minutes to samples before data acquisition by flow cytometry.” left out\nas §5"}, "[13]": {"test_system": "RPMI", "test": "MTT assay, metformin in RPMI myeloma cells", "format": "cell-based", "settings": "Homo sapiens, 72 hours, Compusyn, read-out: metformin required to achieve 50% cell death/growth inhibition (IC50)", "experimental": "as §3, §4"}, "[14]": {"test_system": "MM1S", "test": "BrdU cell cycle assay, MM1S", "format": "cell-based, human", "settings": "metformin 10 mM, 72 hours, from 34% without metformin", "experimental": "as §3, with “Cells were fixed, permeabilized and stained with Anti-BrdU antibody for 30 minutes. 7AAD was added 10 minutes to samples before data acquisition by flow cytometry.” left out\nas §5"}, "[15]": {"test_system": "U266", "test": "Annexin V / propidium iodide apoptosis assay, U266", "format": "cell-based, human", "settings": "U266, metformin 10 mM, 72 hours, Annexin V/PI", "experimental": "as §3, with “Cells were fixed, permeabilized and stained with Anti-BrdU antibody for 30 minutes. 7AAD was added 10 minutes to samples before data acquisition by flow cytometry.” left out\nas §5"}, "[16]": {"test_system": "primary myeloma cells", "test": "MTT assay in primary myeloma cells (CD138+ enriched)", "settings": "metformin 10 mM, 48 hours", "method": "(A) Bone marrow aspirates were enriched for multiple myeloma cells by with magnetic associated cell sorting using CD138^+ (a marker for myeloma cells). Cells were treated with metformin 10 mM or vehicle control. After 48 hours of culture, the MTT assay was performed to determine the percentage of live cells. Data is presented as relative proliferation compared to vehicle control (n=6 per sample).\nCD138^+ cells from bone marrow aspirates were enriched using magnetic associated cell sorting at the Hematology Research Core (Mayo Clinic Rochester, USA). Primary myeloma cells were maintained in RPMI supplemented with 10% FBS, antibiotics and 1 ng/mL IL-6.\n(3-(4,5-Dimethylthiazol-2-5-Diphenyltetrazolium Bromide (MTT) (ThermoFisher Scientific, MA, USA) was dissolved in PBS to make 12 mM stock solution. Cells were seeded at 10,000 cells in 50 μL complete medium. Drugs, cytokines and antibodies were added at indicated doses in 50 μL complete medium. HMCLs were incubated for 72 hours while primary myeloma cells were incubated for 48 hours in presence of vehicle control, metformin (1 mM, 5 mM, 10 mM, 20 mM, 40 mM and 80 mM). MTT (10 μL) was added to each well and incubated for an additional 2 hours. Lysis buffer (100 μL) was added to each well and absorbance was read at 570 nm. […] IC50 was calculated using Compusyn software."}, "[17]": {"test_system": "ALMC1 and ALMC2", "test": "MTT assay in primary amyloidosis (AL) cell lines", "format": "cell-based", "settings": "ALMC2 high, ALMC1 low IL-6Rα expresser", "method": "(3-(4,5-Dimethylthiazol-2-5-Diphenyltetrazolium Bromide (MTT) (Thermo Fisher Scientific, MA, USA) was dissolved in PBS to make 12 mM stock solution. Cells were seeded at 10,000 cells in 50 μl complete medium. Drugs, cytokines and antibodies were added at indicated doses in 50 μl complete medium. Cells were incubated for 72 hours for HMCLs and 48 hours for primary myeloma cells in presence of vehicle control, or metformin (1 mM, 5 mM, 10 mM, 20 mM, 40 mM, and 80 mM). MTT (10 μl) was added to each well and incubated for an additional 2 hours. Lysis buffer (100 μl) was added to each well and absorbance was read at 570 nm."}, "[18]": {"test_system": "MM1S", "test": "Annexin V / propidium iodide apoptosis assay, MM1S", "format": "cell-based, human", "settings": "metformin 10 mM, 72 hours, Annexin V/PI", "experimental": "as §3, with “Cells were fixed, permeabilized and stained with Anti-BrdU antibody for 30 minutes. 7AAD was added 10 minutes to samples before data acquisition by flow cytometry.” left out\nas §5"}, "[19]": {"test_system": "IL-6 induced CRP production from hepatocytes (Hep3B)", "settings": "metformin 10 mM pre-treatment 72 hours, IL-6 50 ng/ml, 48 hours"}, "[20]": {"test_system": "U266", "test": "BrdU cell cycle assay, U266", "format": "cell-based, human", "settings": "U266, metformin 10 mM, 72 hours, from 35% without metformin", "experimental": "as §3, with “Cells were fixed, permeabilized and stained with Anti-BrdU antibody for 30 minutes. 7AAD was added 10 minutes to samples before data acquisition by flow cytometry.” left out\nas §5"}, "[21]": {"test_system": "IL-6Rα", "test": "Flow cytometry, cell surface IL-6Rα in HMCLs", "format": "cell-based, human", "settings": "RPMI, ANBL6, U266, MM1S, JJN3; metformin 10 mM, 72 hours", "experimental": "as §2, §1"}}, "data": [{"smiles": "[H]/N=C(/N)N/C(=N/[H])NCCc1ccccc1", "note": "[Phenformin]", "values": [{"measurement": "Phenformin IC50 versus IL-6Rα expression", "setting": "[1]; MTT IC50 vs flow cytometry", "result": "strongly negatively correlated"}]}, {"smiles": "CN(C)C(=N)N=C(N)N", "note": "[metformin]", "values": [{"measurement": "cell surface expression of IL-6Rα on primary myeloma cells", "setting": "[2]", "result": "decreased cell surface expression of IL-6Rα"}, {"measurement": "IC50 for metformin in JJN3 over-expressing IL-6Rα compared to wild type JJN3", "setting": "[3]", "result": "significantly decreased"}, {"measurement": "soluble IL-6Rα in media", "setting": "[4]", "result": "decrease"}, {"measurement": "CD44 expression", "setting": "[5]", "result": "no significant change"}, {"measurement": "IC50", "setting": "[6]", "result": "< 10", "unit": "mM"}, {"measurement": "IL-6Rα expression on hepatocytes", "setting": "[7]", "result": "expression of the receptor decreased"}, {"measurement": "IC50 for metformin in RPMI IL-6Rα knock-downs compared to scramble control", "setting": "[8]", "result": "significantly increased"}, {"measurement": "survival/growth of multiple myeloma cells", "setting": "[1]; 72 hours, MTT, variable levels of efficacy", "result": "inhibited survival/growth"}, {"measurement": "IC50", "setting": "[9]", "result": "> 30", "unit": "mM"}, {"measurement": "S phase fraction after metformin treatment", "setting": "[10]", "result": 29, "unit": "%"}, {"measurement": "IL-6Rα mRNA level (transcription)", "setting": "[11]", "result": "decreased the level of IL-6Rα transcription"}, {"measurement": "percentage of live cells after metformin treatment", "setting": "[12]", "result": 59, "unit": "%"}, {"measurement": "IC50", "setting": "[13]", "result": "< 10", "unit": "mM"}, {"measurement": "S phase fraction after metformin treatment", "setting": "[14]", "result": 23, "unit": "%"}, {"measurement": "percentage of live cells after metformin treatment", "setting": "[15]", "result": 67, "unit": "%"}, {"measurement": "survival/proliferation of primary myeloma cells", "setting": "[16]", "result": "decreased survival/proliferation"}, {"measurement": "Metformin IC50, ALMC2 compared to ALMC1", "setting": "[17]", "result": "lower for ALMC2 compared to ALMC1"}, {"measurement": "percentage of live cells after metformin treatment", "setting": "[18]", "result": 76, "unit": "%"}, {"measurement": "IL-6 induced CRP production from hepatocytes", "setting": "[19]", "result": "significantly inhibited"}, {"measurement": "S phase fraction after metformin treatment", "setting": "[20]", "result": 20, "unit": "%"}, {"measurement": "cell surface expression of IL-6Rα", "setting": "[21]", "result": "significantly and consistently reduced"}]}]}
